For assay [1], the system named is Human platelet aggregation caused by ADP. Put plainly: Inhibition of ADP-induced platelet aggregation (Mimic-human PRP). It counts as cell-based. Particulars: 20 μM ADP, human platelet concentrate diluted with PPP, absorption at 595 nm. The method in brief:
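Ki came from non-linear sigmoidal fits of inhibition, measured as the 3-min rise in absorbance at 595 nm after 20 μM ADP, relative to 0/20 μM ADP controls. Platelets (3–4×10^8/mL in PPP-diluted human PRP) were exposed to 0.01–30 μM compound for 20 min at room temperature beforehand.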

The target in assay [2] is T1, Human P2Y12 receptor (Homo sapiens, UniProt Q9H244).
T1 construct: expressed in transfected cells; host or cells: HEK cells
Nature of the assay: Human P2Y12 receptor cell membrane binding assay with [3H] 2-Mes-ADP. Particulars: 1 nM [3H] 2-Mes-ADP; for IC50: membranes of HEK cells expressing P2Y12 receptor, read-out: Binding activity (IC50); for inhibition at 30 µM: 30 μM compound. How it is done:
Human P2Y12 Receptor Cell Membrane Binding Assay with [^3H] 2-Mes-ADP
Whether test compounds bind to P2Y12 receptor is measured by [3H]-2MesADP binding in HEK cells expressing P2Y12 receptor. The efficacy according to the amount of test compound can be known through the above test, competitive binding test to P2Y12 receptor, in which the binding material (2-Mes-ADP) is labeled with radioactivity isotope and then the extent of inhibition against the binding of radioactively labeled material is measured.
Preparation of P2Y12 Membrane Protein Fraction
Harvested P2Y12 cells were resuspended with Hypotonic buffer (10 mM HEPES, 10 mM NaCl, 1 mM EDTA, 1 mM EGTA pH 7.4) containing protease inhibitor cocktail. Following the incubation on ice for 15 min, cells were homogenized on ice (Glass/Teflon homogenizer; 1,000 rpm, 10 strokes). The supernant was taken from centrifugation at 500×g for 15 min and then recentrifuged the supernant at 30,000 rpm for 30 min. The membrane pellet was adjusted to 1 mg/mL concentration and stored at −80° C.
P2Y12 Receptor Cell Membrane Binding Assay with [3H] 2-Mes-ADP
The volume of 100 μL of 200 μg membrane protein was aliquoted into 96 well plate. 50 μL volume of test compounds and [^3H] 2-Mes-ADP (final: 1 nM) were added into each well. The total reaction of 0.2 ml/well was incubated for 1 hour at R.T. The reaction was terminated by filtration through GF/B filter using a 96-well cell harvester. […] Radioactivity bound to P2Y12 receptor membrane was counted in a scintillation counter. Total binding was determined with CPM of test group having no compound and non-specific binding was determined with CPM of test group containing 10 μM 2-Mes-ADP. Binding inhibition percent was calculated as follows: [100−(specific binding in the presence of test material/specific binding in the absence of test material×100)].

“And” between values parts separate entries of the source, which are not always exact repeats. Identical values can stand only once.

Usually Ki stands for the dissociation constant of the complex between target and ligand, obtained from inhibition or displacement. Read a high Ki as weaker binding. The term IC50 denotes the concentration that gives 50% inhibition. For orientation: inhibition means the change of the read-out against control, counted positive when it falls.

T1 sequence (Q9H244 whole entry): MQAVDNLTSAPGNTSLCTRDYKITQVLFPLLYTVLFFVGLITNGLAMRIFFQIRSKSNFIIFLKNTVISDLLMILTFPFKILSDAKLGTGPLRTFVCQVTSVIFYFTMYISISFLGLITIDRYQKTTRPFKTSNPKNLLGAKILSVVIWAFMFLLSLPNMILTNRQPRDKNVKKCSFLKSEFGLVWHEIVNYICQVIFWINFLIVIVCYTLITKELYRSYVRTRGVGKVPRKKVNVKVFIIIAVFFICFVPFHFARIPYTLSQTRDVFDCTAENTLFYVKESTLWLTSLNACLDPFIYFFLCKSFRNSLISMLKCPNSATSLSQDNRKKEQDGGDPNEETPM

In assay [1], `CCCc1cc2c(N3CCn4c(nnc4C(F)(F)F)C3)nc(N3CCNC(=O)C3)nc2s1` [Example 1-1, 4-[6-Propyl-4-(3-trifluoromethyl-5,6-dihydro-8H-[1,2,4]triazolo[4,3-a]pyrazin-7-yl)-thieno[2,3-d]pyrimidin-2-yl]-piperazin-2-one] came in with a Ki of 130 nM. Moreover, the IC50 in assay [2] was 20 nM. For `CCCc1cc2c(N3CCn4c(nnc4C(F)(F)F)C3)nc(N3CCN(C)CC3)nc2s1` [Example 1-3, 7-[2-(4-Methyl-piperazin-1-yl)-6-propyl-thieno[2,3-d]pyrimidin-4-yl]-3-trifluoromethyl-5,6,7,8-tetrahydro-[1,2,4]triazolo[4,3-a]pyrazine], in assay [1], the Ki is 164 nM. The IC50 in assay [2] was 92 nM.

In turn, `CCCc1cc2c(N3CCn4c(nnc4C(F)(F)F)C3)nc(N3CCNCC3)nc2s1` [Example 1-4, 7-(2-piperazin-1-yl-6-propyl-thieno[2,3-d]pyrimidin-4-yl)-3-trifluoromethyl-5,6,7,8-tetrahydro-[1,2,4]triazolo[4,3-a]pyrazine] displayed an inhibition constant (Ki) in assay [1] of 300 nM. The IC50 in assay [2] amounted to 64 nM. Regarding `CCCc1cc2c(N3CCn4c(nnc4C(F)(F)F)C3)nc(N3CCN(CCO)CC3)nc2s1` [Example 1-5, 2-{4-[6-Propyl-4-(3-trifluoromethyl-5,6-dihydro-8H-[1,2,4]triazolo[4,3-a]pyrazin-7-yl)-thieno[2,3-d]pyrimidin-2-yl]-piperazin-1-yl}-ethanol], the Ki in assay [1] was 160 nM and 210 nM. Also, in assay [2], the IC50 was 96 nM.

In assay [1], `CCCc1cc2c(N3CCn4c(nnc4C(F)(F)F)C3)nc(N3CCN(C(=O)OCC)CC3)nc2s1` [Example 1-7, 4-[6-Propyl-4-(3-trifluoromethyl-5,6-dihydro-8H-[1,2,4]triazolo[4,3-a]pyrazin-7-yl)-thieno[2,3-d]pyrimidin-2-yl]-piperazine-1-carboxylic acid ethyl ester] gave an inhibition constant Ki of 770 nM. The IC50 in assay [2] was found to be 220 nM.

Molecule `CCCc1cc2c(N3CCn4c(nnc4C(F)(F)F)C3)nc(N3CCN(S(=O)(=O)CC)CC3)nc2s1` [Example 1-8, 7-[2-(4-Ethanesulfonyl-piperazin-1-yl)-6-propyl-thieno[2,3-d]pyrimidin-4-yl]-3-trifluoromethyl-5,6,7,8-tetrahydro-[1,2,4]triazolo[4,3-a]pyrazine] yielded an inhibitory constant (Ki) in assay [1] of 300 nM. Also, the IC50 in assay [2] worked out at 56 nM. `CCCc1cc2c(N3CCn4c(nnc4C(F)(F)F)C3)nc(N3CCN(C(=O)CO)CC3)nc2s1` [Example 1-9, 2-Hydroxy-1-{4-[6-propyl-4-(3-trifluoromethyl-5,6-dihydro-8H-[1,2,4]triazolo[4,3-a]pyrazin-7-yl)-thieno[2,3-d]pyrimidin-2-yl]-piperazin-1-yl}-ethanone] came in with a Ki in assay [1] of 500 nM. Moreover, the IC50 in assay [2] stood at 70 nM.

In assay [1], `CCCc1cc2c(N3CCn4c(nnc4C(F)(F)F)C3)nc(NCCO)nc2s1` [Example 1-10, 2-[6-Propyl-4-(3-trifluoromethyl-5,6-dihydro-8H-[1,2,4]triazolo[4,3-a]pyrazin-7-yl)-thieno[2,3-d]pyrimidin-2-ylamino]-ethanol] displayed a Ki of 178 nM. Moreover, in assay [2], the IC50 was found to be 110 nM. For the molecule `CCCc1cc2c(N3CCn4c(nnc4C(F)(F)F)C3)nc(NCC3CCN(Cc4ccccc4)C3)nc2s1` (stereo not drawn) [Example 1-11, (1-Benzyl-pyrrolidin-3-ylmethyl)-[6-propyl-4-(3-trifluoromethyl-5,6-dihydro-8H-[1,2,4]triazolo[4,3-a]pyrazin-7-yl)-thieno[2,3-d]pyrimidin-2-yl]-amine], in assay [1], the affinity corresponds to a Ki of 1380 nM. Further, the IC50 in assay [2] amounted to 260 nM.

On to `CCCc1cc2c(N3CCn4c(nnc4C(F)(F)F)C3)nc(N3CCC(CN)C3)nc2s1` (stereo not drawn) [Example 1-12, C-{1-[6-Propyl-4-(3-trifluoromethyl-5,6-dihydro-8H-[1,2,4]triazolo[4,3-a]pyrazin-7-yl)-thieno[2,3-d]pyrimidin-2-yl]-pyrrolidin-3-yl}-methylamine], for which the Ki in assay [1] amounted to 226 nM. The IC50 in assay [2] is 84 nM. `CCCc1cc2c(N3CCn4c(nnc4C(F)(F)F)C3)nc(N3CC[C@@H](N)C3)nc2s1` [Example 1-13, (R)-1-[6-Propyl-4-(3-trifluoromethyl-5,6-dihydro-8H-[1,2,4]triazolo[4,3-a]pyrazin-7-yl)-thieno[2,3-d]pyrimidin-2-yl]-pyrrolidin-3-ylamine]: in assay [1], the Ki was 90 nM. Moreover, the IC50 in assay [2] turned out to be 83 nM. Consider `CCc1cc2c(N3CCc4c(nc(C)nc4C(F)(F)F)C3)nc(N3CCNC(=O)C3)nc2s1` [Example 6-34, 4-[6-Ethyl-4-(2-methyl-4-trifluoromethyl-5,8-dihydro-6H-pyrido[3,4-d]pyrimidin-7-yl)-thieno[2,3-d]pyrimidin-2-yl]-piperazin-2-one], for which, in assay [2], the IC50 amounted to 120 nM. As to `CCc1cc2c(N3CCc4c(nc(C)nc4C(F)(F)F)C3)nc(OCC(O)CO)nc2s1` (stereo not drawn) [Example 6-35, 3-[6-Ethyl-4-(2-methyl-4-trifluoromethyl-5,8-dihydro-6H-pyrido[3,4-d]pyrimidin-7-yl)-thieno[2,3-d]pyrimidin-2-yloxy]-propane-1,2-diol], the IC50 in assay [2] was found to be 2300 nM. The same measure, in the same setting: in the case of `CCCc1cc2c(N3CCc4c(nc(C)nc4C(F)(F)F)C3)nc(N3CCNC(=O)C3)nc2s1` [Example 6-36, 4-[4-(2-Methyl-4-trifluoromethyl-5,8-dihydro-6H-pyrido[3,4-d]pyrimidin-7-yl)-6-propyl-thieno[2,3-d]pyrimidin-2-yl]-piperazin-2-one] it was 640 nM; in that of `CCc1cc2c(N3CCc4c(nc(-c5ccccc5)nc4C(F)(F)F)C3)nc(N3CCNC(=O)C3)nc2s1` [Example 6-37, 4-[6-Ethyl-4-(2-phenyl-4-trifluoromethyl-5,8-dihydro-6H-pyrido[3,4-d]pyrimidin-7-yl)-thieno[2,3-d]pyrimidin-2-yl]-piperazin-2-one], 400 nM. Turning to `CCCc1cc2c(N3CCc4c(nc(-c5ccccc5)nc4C(F)(F)F)C3)nc(N3CCNC(=O)C3)nc2s1` [Example 6-38, 4-[4-(2-Phenyl-4-trifluoromethyl-5,8-dihydro-6H-pyrido[3,4-d]pyrimidin-7-yl)-6-propyl-thieno[2,3-d]pyrimidin-2-yl]-piperazin-2-one], in assay [2], the IC50 came out at 4420 nM. For `CCc1cc2c(N3CCc4c(nc(-c5ccoc5)nc4C(F)(F)F)C3)nc(N3CCNC(=O)C3)nc2s1` [Example 6-39, 4-[6-Ethyl-4-(2-furan-3-yl-4-trifluoromethyl-5,8-dihydro-6H-pyrido[3,4-d]pyrimidin-7-yl)-thieno[2,3-d]pyrimidin-2-yl]-piperazin-2-one], the IC50 in assay [2] amounted to 1500 nM. Regarding `CCc1cc2c(N3CCc4c(nc(-c5ccoc5)nc4C(F)(F)F)C3)nc(NCC(O)CO)nc2s1` (stereo not drawn) [Example 6-40, 3-[6-Ethyl-4-(2-furan-3-yl-4-trifluoromethyl-5,8-dihydro-6H-pyrido[3,4-d]pyrimidin-7-yl)-thieno[2,3-d]pyrimidin-2-ylamino]-propane-1,2-diol], the IC50 in assay [2] stood at 1950 nM. On to `CCc1cc2c(N3CCc4c([nH]n(C)c4=O)C3)nc(N3CCNC(=O)C3)nc2s1` [Example 6-41, 6-[6-Ethyl-2-(3-oxo-piperazin-1-yl)-thieno[2,3-d]pyrimidin-4-yl]-2-methyl-1,2,4,5,6,7-hexahydro-pyrazolo[3,4-c]pyridin-3-one], for which at 30 µM the inhibition in assay [2] was 23.6%. As to `CCc1cc2c(N3CCc4c([nH]n(C)c4=O)C3)nc(OCC(O)CO)nc2s1` (stereo not drawn) [Example 6-42, 6-[2-(2,3-Dihydroxy-propoxy)-6-ethyl-thieno[2,3-d]pyrimidin-4-yl]-2-methyl-1,2,4,5,6,7-hexahydro-pyrazolo[3,4-c]pyridin-3-one], testing at 30 µM in assay [2] gave an inhibition of 26.4%.

As for `CCc1cc2c(N3CCc4c([nH]n(CCO)c4=O)C3)nc(N3CCNC(=O)C3)nc2s1` [Example 6-43, 6-[6-Ethyl-2-(3-oxo-piperazin-1-yl)-thieno[2,3-d]pyrimidin-4-yl]-2-(2-hydroxy-ethyl)-1,2,4,5,6,7-hexahydro-pyrazolo[3,4-c]pyridin-3-one], in assay [2], the IC50 stood at 46400 nM. For `CCc1cc2c(N3CCc4c([nH]n(-c5ccccc5)c4=O)C3)nc(N3CCNC(=O)C3)nc2s1` [Example 6-44, 6-[6-Ethyl-2-(3-oxo-piperazin-1-yl)-thieno[2,3-d]pyrimidin-4-yl]-2-phenyl-1,2,4,5,6,7-hexahydro-pyrazolo[3,4-c]pyridin-3-one], the concentration for half-maximal inhibition (IC50) in assay [2] turned out to be 21500 nM.

The record behind these values is patent publication US20110166121A1 (LG LIFE SCIENCES LTD., priority 2008, published 2011).
